IC50 data for 32 compounds are collected here from patent publication US20210198277A1, “AMINE-SUBSTITUTED ARYL OR HETEROARYL COMPOUNDS” (Epizyme, Inc., priority 2016, published 2021).

Where two headings read alike, the source gives them in different places. Where only a bound is given, the exact number is not on record here.

The target in this assay is T1, EHMT2 (Homo sapiens, UniProt Q96KQ7).
T1 construct: host or cells: MDA-MB-231
T1 sequence (Q96KQ7 1-1210): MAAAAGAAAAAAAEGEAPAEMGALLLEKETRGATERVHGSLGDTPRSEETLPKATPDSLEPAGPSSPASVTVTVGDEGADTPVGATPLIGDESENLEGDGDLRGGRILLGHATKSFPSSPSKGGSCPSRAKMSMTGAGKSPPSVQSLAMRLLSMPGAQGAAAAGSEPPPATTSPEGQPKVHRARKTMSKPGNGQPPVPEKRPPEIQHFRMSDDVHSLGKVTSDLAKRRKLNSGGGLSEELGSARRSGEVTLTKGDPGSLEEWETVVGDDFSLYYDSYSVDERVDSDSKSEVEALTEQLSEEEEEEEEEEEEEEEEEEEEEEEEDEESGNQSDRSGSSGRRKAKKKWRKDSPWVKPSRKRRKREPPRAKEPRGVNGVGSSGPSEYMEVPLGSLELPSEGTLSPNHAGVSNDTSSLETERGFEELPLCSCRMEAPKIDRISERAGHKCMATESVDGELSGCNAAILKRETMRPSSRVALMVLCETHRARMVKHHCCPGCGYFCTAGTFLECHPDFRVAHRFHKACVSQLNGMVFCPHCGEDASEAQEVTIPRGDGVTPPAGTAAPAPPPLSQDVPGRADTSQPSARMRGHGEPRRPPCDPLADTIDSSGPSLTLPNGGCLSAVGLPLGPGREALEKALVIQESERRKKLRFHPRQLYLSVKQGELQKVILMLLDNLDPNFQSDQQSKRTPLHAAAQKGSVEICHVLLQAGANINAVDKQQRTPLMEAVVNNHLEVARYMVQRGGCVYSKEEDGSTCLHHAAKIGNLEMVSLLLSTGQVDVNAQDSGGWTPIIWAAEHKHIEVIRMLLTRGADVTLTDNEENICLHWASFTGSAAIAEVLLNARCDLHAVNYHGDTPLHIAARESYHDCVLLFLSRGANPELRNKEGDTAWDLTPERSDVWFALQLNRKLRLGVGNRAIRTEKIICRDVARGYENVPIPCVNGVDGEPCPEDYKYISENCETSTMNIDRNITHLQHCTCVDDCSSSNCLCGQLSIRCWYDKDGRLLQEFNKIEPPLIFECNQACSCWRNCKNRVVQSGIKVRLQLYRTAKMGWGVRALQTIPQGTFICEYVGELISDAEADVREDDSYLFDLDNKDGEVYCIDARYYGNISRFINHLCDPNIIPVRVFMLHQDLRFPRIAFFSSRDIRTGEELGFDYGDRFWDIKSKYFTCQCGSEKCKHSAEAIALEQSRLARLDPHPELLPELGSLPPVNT
The assay can be described thus: MDA-MB-231 H3K9me2 in-cell Western assay (EHMT2 ICW). Type of assay: cell-based. The method, boiled down: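 MDA-MB-231 cells (3,000/well) seeded onto compound, kept 30 min at room temperature, then 48 h at 37 °C, 5% CO2. IC50 from triplicate wells, four-parameter fit.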

Setting [1] is: H3K9me2 in-cell Western, MDA-MB-231 cells, read-out: EHMT2 ICW (IC50 μM).
Where [2] appears, read: Table VII, read-out: EHMT2 ICW IC50.

`CNc1cc(C2CCOCC2)c2cc(OC)c(OCCCN3CCCC3)cc2n1` [Compound 524, 6-methoxy-N-methyl-4-(oxan-4-yl)-7-[3-(pyrrolidin-1-yl)propoxy]quinolin-2-amine]: the concentration for half-maximal inhibition (IC50) – broadly, the concentration that gives 50% inhibition – under setting [1] is < 0.1 µM.
Regarding `CNc1cc(C)nc(Nc2ccc(OC)c(OCCCN3CC4CC4C3)c2)n1` (centres unmarked) [Compound 506], the concentration for half-maximal inhibition (IC50) under setting [1] lay in the range of 0.1 to 1 µM.
On the same count and under the same terms, in the case of `COc1cnc(Nc2nc(C)cc3[nH]ccc23)cc1OC[C@@H]1CCN(C2CC2)C1` [Compound 495] it was 0.1 to 1 µM; in that of `CNc1cc(C)nc(Nc2ccc(OC)c(OC[C@H]3C[C@H](N(C)C)C3)c2)n1` [Compound 470], > 10 µM; in that of `CNc1cc(C)nc(Nc2ccc(OC)c(OCC3CCN(C4CC4)C3)c2)n1` (centres unmarked) [Compound 457], < 0.1 µM.
Regarding `COc1cnc(Nc2nc(C)cc3[nH]c(C)cc23)cc1OCCCN1CCCC1` [Compound 485], the IC50 under setting [1] was in the range of 0.1 to 1 µM.
As for `CNc1ccnc(Nc2ccc(OC)c(OCc3ncn(C4CC4)n3)c2)n1` [Compound 480], the IC50 under setting [1] was > 10 µM.
Regarding `CNc1cc(C2CCOCC2)nc(Nc2ccc(OC)c(OCCCN3CCCC3)c2)n1` [Compound 459, N^2-(4-methoxy-3-(3-(pyrrolidin-1-yl)propoxy)phenyl)-N^4-methyl-6-(tetrahydro-2H-pyran-4-yl)pyrimidine-2,4-diamine], the 50% inhibitory concentration (IC50) under setting [1] is > 10 µM.
On to `CNc1cc(C)nc(Nc2ccc(OC)c(OCCCN3CCC3)c2)n1` [Compound 490], for which the IC50 under setting [1] is < 0.1 µM.
In the case of `CNc1cc(C2CCOCC2)c2cc(OC)c(CNCCN3CCCC3)cc2n1` [Compound 1111], the IC50 under setting [2] lay within 0.1 to 1 µM.
Turning to `CNc1nc(C2CCN(C(C)C)CC2)c2cc(OC)c(OC[C@@H]3CCN(C4CC4)C3)cc2n1` [Compound 526], under setting [1], the IC50 lay within 0.1 to 1 µM.
Still for that read-out and setting: in the case of `CNc1nc(C2CCN(C)CC2)c2cc(OC)c(OCCCN3CC4CC4C3)cc2n1` (centres unmarked) [Compound 532] it was 0.1 to 1 µM; in that of `CNc1nc(C2CCN(CCO)CC2)c2cc(OC)c(OCCCN3CCCC3)cc2n1` [Compound 533], 0.1 to 1 µM.
`CNc1cc(C(C)C)nc(Nc2ccc(OC)c(OCCCN3CCCC3)c2)n1` [Compound 483]: the half-maximal inhibitory concentration (IC50) under setting [1] was in the range of 0.1 to 1 µM.
Same read-out and setting: in the case of `CNc1cc(C)nc(Nc2ccc(OC)c(OC[C@@H]3CN(C)C[C@H]3O)c2)n1` [Compound 491] it was 1 to 10 µM; in that of `CNc1cc(C)nc(Nc2ccc(OC)c(OC[C@@H]3CCN(C4CC4)C3)c2)n1` (single isomer, unassigned) [Compound 481], < 0.1 µM; in that of `CNc1cc(C)nc(Nc2ccc(OC)c(OCCCCN(C)C)c2)n1` [Compound 502], 1 to 10 µM.
Consider `CNc1cc(C)nc(Nc2ccc(OC)c(OC3CCN(C4CC4)CC3)c2)n1` [Compound 466, N^2-(3-((1-cyclopropylpiperidin-4-yl)oxy)-4-methoxyphenyl)-N^4,6-dimethylpyrimidine-2,4-diamine], for which the half-maximal inhibitory concentration (IC50) under setting [1] was > 10 µM.
For the compound `CNc1cc(C)nc(Nc2ccc(OC)c(OCC3CCN(C4CCCC4)C3)c2)n1` (centres unmarked) [Compound 456, N^2-(3-((1-cyclopentylpyrrolidin-3-yl)methoxy)-4-methoxyphenyl)-N^4,6-dimethylpyrimidine-2,4-diamine], the IC50 under setting [1] was > 10 µM.
Regarding `CNc1ccnc(Nc2ccc(OC)c(OC[C@@H]3CN(C)C[C@@H]3C)c2)n1` [Compound 477], under setting [1], the IC50 is 1 to 10 µM.
Regarding `CNc1cc(C)nc(Nc2cnc(C3CC3)c(OCCCN3CCCC3)c2)n1` [Compound 516], the concentration for half-maximal inhibition (IC50) under setting [1] was in the range of 1 to 10 µM.
Regarding `CNc1cc(C)nc(Nc2cnc(OC)c(CNCCN3CCC3)c2)n1` [Compound 1110], the IC50 under setting [2] lay within 0.1 to 1 µM.
With `CNc1cc(C)nc(Nc2ccc(C)c(C(=O)NCc3ccon3)c2)n1` [Compound 1114], the IC50 under setting [2] was > 10 µM.
In the case of `CNc1cc(C)nc(Nc2cc(OC[C@@H]3CCN(C)C3)c(OC)cn2)c1` [Compound 475], the concentration for half-maximal inhibition (IC50) under setting [1] is 0.1 to 1 µM.
On to `CNc1cc(C)nc(Nc2ccc(OC)c(CNCCNC3CCC3)c2)n1` [Compound 1109], for which the IC50 under setting [2] is 1 to 10 µM.
Regarding `CNc1cc(C)nc(Nc2ccc(OC)c(OC[C@H]3CCCN(C4CC4)C3)c2)n1` [Compound 517b], the 50% inhibitory concentration (IC50) under setting [1] is 0.1 to 1 µM.
Regarding `CCc1ccc(Nc2nc(C)cc(NC)n2)cc1OCCCN1CCCC1` [Compound 497], under setting [1], the IC50 is 0.1 to 1 µM.
For the compound `CCc1ncc(Nc2nc(C)cc(NC)n2)cc1OCCCN1CCCC1` [Compound 515], the half-inhibitory concentration (IC50) under setting [1] was in the range of 1 to 10 µM.
In the case of `COc1cnc(Nc2nccc3[nH]ccc23)cc1OCCCN1CC2CC2C1` (centres unmarked) [Compound 507], the 50% inhibitory concentration (IC50) under setting [1] is 0.1 to 1 µM.
With `CNc1nc(C2CCOCC2)c2cc(OC)c(OCCCN3CCCC3)cc2n1` [Compound 521], the half-maximal inhibitory concentration (IC50) under setting [1] lay within 1 to 10 µM.
In the case of `CNc1cc(C)nc(Nc2ccc(OC)c(OC[C@H](O)CN(C)C)c2)n1` [Compound 1112], under setting [2], the IC50 fell in the range of 1 to 10 µM.
Take `COc1cc2c(C3CCN(C)CC3)cc(C)nc2cc1OCCCN1CCCC1` [Compound 536]: the IC50 under setting [1] was 0.1 to 1 µM.
